Like-named read-outs stand apart in the source and are kept apart here.
Key:
[1] = test system: P. falciparum 3D7 trophozoites; test: Metabolomic fingerprint profiling LC-MS; assay type: cell-based, Plasmodium falciparum; set-up: UDP-D-glucose / ADP-D-glucose: unit not given here; conditions: for Acetyllysine / N-acetyl-L-ornithine / N-carbamoyl-L-aspartate / NADPH / dAMP / dCMP / dTDP / dTMP / dTTP / dihydroorotate / orotate / DLH / DLS/SDL/SID / PD / PEE / PVNF / 3-phosphoglycerate / ADP-D-glucose / ATP / CDP / D-sedoheptulose-1/7-phosphate / FAD / GMP / NAD+ / NADP+ / Octoluse Bisphosphate / Pyroglutamic acid / UDP-D-glucose / UDP-D-glucuronate / UDP-N-acetyl-glucosamine / UDP / UMP / UTP / a-ketoglutarate / citrate/isocitrate / cytidine / dATP / dGMP/AMP / fumarate / glucose-1/6-phosphate / glycerate / guanine / guanosine / hypoxanthine / indole / inosine / nicotinate / ornithine / phosphoenolpyruvate / pyruvate / ribose-phosphate / sarcosine/alanine / sn-glycerol-3-phosphate / succinate/methylmalonic acid / uridine / xanthosine: S2 Table Metabolomics; for Acetyllysine: metabolite Acetyllysine; for N-acetyl-L-ornithine: metabolite N-acetyl-L-ornithine; for N-carbamoyl-L-aspartate: metabolite N-carbamoyl-L-aspartate; for NADPH: metabolite NADPH; for dAMP: metabolite dAMP; for dCMP: metabolite dCMP; for dTDP: metabolite dTDP; for dTMP: metabolite dTMP; for dTTP: metabolite dTTP; for dihydroorotate: metabolite dihydroorotate; for orotate: metabolite orotate; for DLH: peptide DLH; for DLS/SDL/SID: peptide DLS/SDL/SID; for PD: peptide PD; for PEE: peptide PEE; for PVNF: peptide PVNF; for 3-phosphoglycerate: metabolite 3-phosphoglycerate; for ADP-D-glucose: metabolite ADP-D-glucose; for ATP: metabolite ATP; for CDP: metabolite CDP; for CDP / D-sedoheptulose-1/7-phosphate / GMP / Octoluse Bisphosphate / UDP / UMP / UTP / citrate/isocitrate / dGMP/AMP / fumarate / glucose-1/6-phosphate / glycerate / guanine / guanosine / inosine / pyruvate / sarcosine/alanine / succinate/methylmalonic acid / uridine / xanthosine: change in metabolite level after compound treatment; for D-sedoheptulose-1/7-phosphate: metabolite D-sedoheptulose-1/7-phosphate; for FAD: metabolite FAD; for GMP: metabolite GMP; for NAD+: metabolite NAD+; for NADP+: metabolite NADP+; for Octoluse Bisphosphate: metabolite Octoluse Bisphosphate; for Pyroglutamic acid: metabolite Pyroglutamic acid; for UDP-D-glucose: metabolite UDP-D-glucose; for UDP-D-glucuronate: metabolite UDP-D-glucuronate; for UDP-N-acetyl-glucosamine: metabolite UDP-N-acetyl-glucosamine; for UDP: metabolite UDP; for UMP: metabolite UMP; for UTP: metabolite UTP; for a-ketoglutarate: metabolite a-ketoglutarate; for citrate/isocitrate: metabolite citrate/isocitrate; for cytidine: metabolite cytidine; for dATP: metabolite dATP; for dGMP/AMP: metabolite dGMP/AMP; for fumarate: metabolite fumarate; for glucose-1/6-phosphate: metabolite glucose-1/6-phosphate; for glycerate: metabolite glycerate; for guanine: metabolite guanine; for guanosine: metabolite guanosine; for hypoxanthine: metabolite hypoxanthine; for indole: metabolite indole; for inosine: metabolite inosine; for 2_3-Diphosphoglyceric acid / 4-phosphopantothenate / 6-phospho-D-gluconate / FMN / IMP / Pyrophosphate / Sedoheptoluse bisphosphate / cyclic-AMP / glutathione disulfide / lactate / myo-inositol: metabolite level change after treatment; for nicotinate: metabolite nicotinate; for ornithine: metabolite ornithine; for phosphoenolpyruvate: metabolite phosphoenolpyruvate; for pyruvate: metabolite pyruvate; for ribose-phosphate: metabolite ribose-phosphate; for sarcosine/alanine: metabolite sarcosine/alanine; for sn-glycerol-3-phosphate: metabolite sn-glycerol-3-phosphate; for succinate/methylmalonic acid: metabolite succinate/methylmalonic acid; for uridine: metabolite uridine; for xanthosine: metabolite xanthosine
[2] = test system: P. falciparum; test: EC50 listed in S2 Table Metabolomics (used to set the concentration tested); assay type: cell-based; conditions: Plasmodium falciparum; EC50 used for Factor_XEC50 in metabolomics; read-out: EC50_nM
[3] = test system: P. falciparum 3D7; test: [3H]-hypoxanthine growth inhibition, modified HCO3- or O2; assay type: cell-based; conditions: for IC50: Plasmodium falciparum
[4] = 3D7, read-out: P. falciparum 3D7 IC50 HCO3- (2g/L), standard media
[5] = 3D7, HCO3- reduced media, read-out: P. falciparum 3D7 IC50 HCO3- reduced

Structure (SMILES): CCN(CC)CCNc1ccnc2cc(Cl)ccc12 [MMV006087]
- Acetyllysine [1]: -0.6709
- N-acetyl-L-ornithine [1]: -0.3158
- N-carbamoyl-L-aspartate [1]: 0.2408
- NADPH [1]: 1.332
- dAMP [1]: 1.732
- dCMP [1]: 0.4187
- dTDP [1]: 0.1999
- dTMP [1]: 1.797
- dTTP [1]: -0.4289
- dihydroorotate [1]: 0.1541
- orotate [1]: -0.4098
- DLH [1]: -1.609
- DLS/SDL/SID [1]: -1.645
- PD [1]: -0.5241
- PEE [1]: 0.8188
- PVNF [1]: -2.104
- 3-phosphoglycerate [1]: -0.1063
- ADP-D-glucose [1]: 0.134
- ATP [1]: -0.2173
- CDP [1]: 0.2969
- D-sedoheptulose-1/7-phosphate [1]: -0.3976
- FAD [1]: -0.08711
- GMP [1]: 0.04645
- NAD+ [1]: -0.09966
- NADP+ [1]: 0.09641
- Octoluse Bisphosphate [1]: 0.7357
- Pyroglutamic acid [1]: -0.2816
- UDP-D-glucose [1]: -0.03029
- UDP-D-glucuronate [1]: -0.03795
- UDP-N-acetyl-glucosamine [1]: -0.1287
- UDP [1]: -0.01186
- UMP [1]: -0.1675
- UTP [1]: -0.4234
- a-ketoglutarate [1]: -1.012
- citrate/isocitrate [1]: -0.5672
- cytidine [1]: 0.4735
- dATP [1]: -0.2015
- dGMP/AMP [1]: 1.373
- fumarate [1]: -0.3281
- glucose-1/6-phosphate [1]: -0.3642
- glycerate [1]: -1.245
- guanine [1]: -0.2729
- guanosine [1]: -1.735
- hypoxanthine [1]: 0.3732
- indole [1]: 0.02177
- inosine [1]: -0.5366
- 2_3-Diphosphoglyceric acid [1]: -0.3682
- 4-phosphopantothenate [1]: -0.474
- 6-phospho-D-gluconate [1]: -0.3619
- FMN [1]: 0.01066
- IMP [1]: -0.05089
- Pyrophosphate [1]: -0.2464
- Sedoheptoluse bisphosphate [1]: 1.503
- cyclic-AMP [1]: -0.4094
- glutathione disulfide [1]: -0.5661
- lactate [1]: -0.8938
- myo-inositol [1]: -1.322
- nicotinate [1]: -1.055
- ornithine [1]: 0.317
- phosphoenolpyruvate [1]: -0.3268
- pyruvate [1]: -1.42
- ribose-phosphate [1]: -0.4165
- sarcosine/alanine [1]: -0.8094
- sn-glycerol-3-phosphate [1]: -0.2401
- succinate/methylmalonic acid [1]: -0.2149
- uridine [1]: -1.004
- xanthosine [1]: -1.365
- EC50 [2]: 58.1 nM
- fold change (IC50normal/ IC50hypoxia) [3]: 2.2
- fold change (IC50reduced/IC50normal) [3]: 2.0
- IC50 ([3]; 3D7, read-out: P. falciparum 3D7 IC50 1% O2, 1% O2 hypoxia): 18 nM
- IC50 ([3]; 3D7, read-out: P. falciparum 3D7 IC50 5% O2): 40 nM
- IC50 [3, 4]: 46 nM
- IC50 [3, 5]: 94 nM

Structure (SMILES): CCN(CC)CCNc1ncnc2c1[nH]c1ccc(Cl)cc12 [MMV396703]
- Acetyllysine [1]: -0.2691
- N-acetyl-L-ornithine [1]: -0.2168
- N-carbamoyl-L-aspartate [1]: 1.148
- NADPH [1]: -0.09375
- dAMP [1]: 0.7031
- dCMP [1]: -0.6066
- dTDP [1]: 0.1301
- dTMP [1]: 0.2768
- dTTP [1]: -0.448
- dihydroorotate [1]: 1.736
- orotate [1]: -0.221
- DLH [1]: -2.825
- DLS/SDL/SID [1]: -3.008
- PD [1]: -0.5054
- PEE [1]: -0.1284
- PVNF [1]: -2.309
- 3-phosphoglycerate [1]: -0.08336
- ADP-D-glucose [1]: -0.05094
- ATP [1]: -0.4333
- CDP [1]: 0.1613
- D-sedoheptulose-1/7-phosphate [1]: 0.02906
- FAD [1]: -0.01537
- GMP [1]: -0.5327
- NAD+ [1]: 0.6915
- NADP+ [1]: -0.1108
- Octoluse Bisphosphate [1]: -0.5568
- Pyroglutamic acid [1]: -0.07773
- UDP-D-glucose [1]: 0.04104
- UDP-D-glucuronate [1]: -0.19
- UDP-N-acetyl-glucosamine [1]: 0.01931
- UDP [1]: 0.1008
- UMP [1]: -0.1897
- UTP [1]: -0.3667
- a-ketoglutarate [1]: -0.2121
- citrate/isocitrate [1]: -0.02741
- cytidine [1]: -0.169
- dATP [1]: -0.3924
- dGMP/AMP [1]: 0.4109
- fumarate [1]: 0.899
- glucose-1/6-phosphate [1]: 0.3195
- glycerate [1]: 0.2766
- guanine [1]: 0.5966
- guanosine [1]: 0.5739
- hypoxanthine [1]: -0.03794
- indole [1]: -0.04008
- inosine [1]: 0.01185
- 2_3-Diphosphoglyceric acid [1]: -0.2785
- 4-phosphopantothenate [1]: 0.1971
- 6-phospho-D-gluconate [1]: -0.09007
- FMN [1]: -0.3587
- IMP [1]: 0.3624
- Pyrophosphate [1]: -0.1133
- Sedoheptoluse bisphosphate [1]: 0.1128
- cyclic-AMP [1]: -0.07748
- glutathione disulfide [1]: -0.04771
- lactate [1]: -0.382
- myo-inositol [1]: -0.001865
- nicotinate [1]: 0.1485
- ornithine [1]: 0.2269
- phosphoenolpyruvate [1]: -0.03548
- pyruvate [1]: -0.182
- ribose-phosphate [1]: -0.3286
- sarcosine/alanine [1]: -0.1738
- sn-glycerol-3-phosphate [1]: -0.2165
- succinate/methylmalonic acid [1]: -0.02068
- uridine [1]: -0.05174
- xanthosine [1]: -0.494
- EC50 [2]: 406 nM
- fold change (IC50reduced/IC50normal) [3]: 2.6
- IC50 [3, 4]: 326 nM
- IC50 [3, 5]: 851 nM

Structure (SMILES): Cc1cc(C)cc(Nc2cc(C)nc3nc(C(F)(F)F)nn23)c1 [MMV011259]
- Acetyllysine [1]: -0.3746
- N-acetyl-L-ornithine [1]: -0.3462
- N-carbamoyl-L-aspartate [1]: 3.644
- NADPH [1]: -0.3366
- dAMP [1]: -0.7598
- dCMP [1]: -0.2996
- dTDP [1]: -1.147
- dTMP [1]: -1.715
- dTTP [1]: -1.159
- dihydroorotate [1]: 4.069
- orotate [1]: -1.5889
- DLH [1]: -0.4322
- DLS/SDL/SID [1]: -0.5334
- PD [1]: -0.3116
- PEE [1]: -0.461
- PVNF [1]: -0.5009
- 3-phosphoglycerate [1]: -0.8854
- ADP-D-glucose [1]: -0.2124
- ATP [1]: -0.1449
- CDP [1]: -0.8411
- D-sedoheptulose-1/7-phosphate [1]: 0.2305
- FAD [1]: -0.12
- GMP [1]: 0.1977
- NAD+ [1]: -0.2042
- NADP+ [1]: -0.294
- Octoluse Bisphosphate [1]: -0.4132
- Pyroglutamic acid [1]: -0.07042
- UDP-D-glucose [1]: -0.2997
- UDP-D-glucuronate [1]: -0.2701
- UDP-N-acetyl-glucosamine [1]: -0.5126
- UDP [1]: -1.399
- UMP [1]: -1.28
- UTP [1]: -1.133
- a-ketoglutarate [1]: -0.631
- citrate/isocitrate [1]: -1.3117
- cytidine [1]: 0.1757
- dATP [1]: 0.0538
- dGMP/AMP [1]: -0.551
- fumarate [1]: -0.9126
- glucose-1/6-phosphate [1]: -0.8385
- glycerate [1]: -1.011
- guanine [1]: -0.4133
- guanosine [1]: -0.4081
- hypoxanthine [1]: -0.3413
- indole [1]: -0.1801
- inosine [1]: -0.6501
- 2_3-Diphosphoglyceric acid [1]: -0.2003
- 4-phosphopantothenate [1]: -0.5735
- 6-phospho-D-gluconate [1]: -1.0674
- FMN [1]: -0.3875
- IMP [1]: -0.2517
- Pyrophosphate [1]: -0.0001746
- Sedoheptoluse bisphosphate [1]: -0.416
- cyclic-AMP [1]: -0.9316
- glutathione disulfide [1]: -0.2721
- lactate [1]: -0.3904
- myo-inositol [1]: -0.254
- nicotinate [1]: -0.9132
- ornithine [1]: -0.1147
- phosphoenolpyruvate [1]: -0.7531
- pyruvate [1]: -0.8729
- ribose-phosphate [1]: -0.4441
- sarcosine/alanine [1]: -0.2762
- sn-glycerol-3-phosphate [1]: -0.2294
- succinate/methylmalonic acid [1]: -0.3522
- uridine [1]: -1.619
- xanthosine [1]: -0.6868
- EC50 [2]: 85.7 nM
- fold change (IC50reduced/IC50normal) [3]: 2.2
- IC50 [3, 4]: 59 nM
- IC50 [3, 5]: 132 nM

From PMC4965013, “Open Source Drug Discovery with the Malaria Box Compound Collection for Neglected Diseases and Beyond” (PLoS Pathogens, 2016)
